Drawing on US20260297627A1, “MODULATION OF GLOBAL REGULATORY MECHANISMS AND BIOSYNTHETIC GENE CLUSTERS FOR SIMPLIFIED PRODUCTION OF NATURAL PRODUCTS” (priority 2023, published 2026), this text covers growth and proteasome inhibition for 4 compounds.

Entries after “also recorded” stand apart in the source; their conditions may differ.

Assay [1] concerns X. indica ΔrpmM-O mutant (strain VII). The assay is described as follows: Growth curve of X. indica ΔrpmM-O mutant (strain VII) with fed benzoic acid derivative. Type of assay: cell-based, Xenorhabdus indica. How it is done: To elucidate the influence of rpmM-O on biosynthesis, they were deleted together bases on pAR20 with the synthetic dsDNA fragments used for CRISPR/Cas12 mediated genome editing specific HA-L and R SEQ ID NOs 177-178 The resulting mutant ΔrpmM-O was then analysed for production and growth. Also with the addition of 3,4-AHBA, no growth and thus no production could be observed (FIG. 12 VII).
(§1) In order to analyze the growth curve, the strains were cultured in microtiter plates in a Tecan Spark microplate reader (FIG. 14). A comparison was initially made between strain V and strain VII with and without the addition of 3,4-AHBA (FIGS. 14 A and B). Furthermore, to investigate the sole effect of 3,4-AHBA on the cells, 3,4-AHBA was added to the cells in presence or not of the rpm BGC inducer IPTG (FIGS. 14A and B). […] Subsequently, in order to investigate the effect of the amino group on the benzoic acid, 3,4-DHBA was fed to both strains (FIGS. 14 C and D). […] It can therefore be concluded that the amino group is crucial for the bioactivity of rupshomycin.

The next assay relates to proteasome. The following applies: role: inhibitor; cited from earlier work.
Another assay deals with X. indica strain V. Put plainly: Growth curve of X. indica strain V with fed benzoic acid derivative. Type of assay: cell-based, Xenorhabdus indica. The following applies: with and without 3,4-AHBA, in presence or not of IPTG. How it is done: as §1
The subject of assay [2] is X. indica ΔrpmM-O mutant with vector expressing rpmM and rpmN (strain VIII). The following applies: 3,4-AHBA and IPTG; compared to empty vector control. The method, then: (§2) Addition of the inducer and benzoic acid was added from the start. The numbering I-IX corresponds to the strains in FIG. 12. A: growth of strain I culture with and without induction (1 mM IPTG), with and without addition of 3,4-AHBA. B: growth of strain V culture with and without induction, with and without addition of 3,4-AHBA. C: growth of strain I culture with and without induction, with and without addition of 3,4-DHBA. D: growth of strain V culture with and without induction, with and without addition of 3,4-DHBA. E: growth of induced and 3,4-AHBA supplemented strain VIII culture with vector expressing rpmMN or empty expression vector. F: growth of induced and 3,4-AHBA supplemented strain IX culture with vector expressing rpmO or empty expression vector.
(§3) Which of the rpmM-O genes are responsible for resistance to the biosynthesis product of the rpm BGC was the question addressed in the following studies. […] The influence of the vector was excluded by conjugating an empty vector into the strains as a control. […] Production of rupshomycins were performed in XPP3 medium with 2% (v/v) XAD-16 for in situ extraction.

In assay [3] the test system is X. indica ΔrpmM-O mutant with empty vector. Particulars: 3,4-AHBA and IPTG; empty vector control. The method, then:
as §2, §3

Assay [4] deals with X. indica ΔrpmM-O mutant with vector expressing rpmO (strain IX). Particulars: 3,4-AHBA and IPTG; compared to empty vector control. How it is done:
as §2, §3

Take `O=C(O)c1ccc(O)c(O)c1` [3,4-DHBA]: the growth entry in assay [1] (3,4-DHBA fed, induced vs non-induced culture) was “did not lead to the complete death of the ΔrpmM-O culture, but to a growth deficiency compared to the non-induced culture”.

Take `CC(C)CCCCC/C=C/C=C/C(=O)N[C@H](C(=O)N[C@H]1CC(O)CCNC(=O)/C=C/C(C)NC1=O)[C@@H](C)O` (some centres unmarked) [cepafungin I]: the proteasome inhibition entry in the assay with proteasome was “potent proteasome inhibitors”.

`Nc1cc(C(=O)O)ccc1O` [3,4-AHBA, 3-amino-4-hydroxy benzoic acid]: the growth entry was “no particular growth differences were observed” in the assay with X. indica strain V; “culture dies after induction; also recorded: no growth; also recorded: a weak growth was observed in the first 3 hours, which then quickly collapsed and fell below the optical density of the starting point of the experiment” in assay [1] (3,4-AHBA fed, rpm BGC induced, 96 well microtiter plate, 24 hours); “significant growth of the culture compared to the empty vector control” in assay [2]; “severe growth defect of the culture” in assay [3]; “no significant growth of the culture was observed compared to the empty vector control” in assay [4].

For the compound `CCCCCCC/C=C/C=C/C(=O)N[C@H](C(=O)N[C@H]1C[C@@H](O)CCNC(=O)/C=C/[C@H](C)NC1=O)[C@@H](C)O` [glidobactin A], the proteasome inhibition result in the assay with proteasome is on record as “potent proteasome inhibitors”.
